US20220135663A1, “Method of treatment of Chronic Low Back Pain” (Pfizer Inc., priority 2019, published 2022)

Experiments:
low back pain = conditions: 500 mg BID; prior study; cited from earlier work
[1] = system: subjects with chronic low back pain (CLBP); test: Study 1063, Phase 3 in Japan: efficacy (LBPI, RMDQ) in chronic low back pain; format: in vivo, human; conditions: 100 mg BID
Procedure: Patients received a total of seven SC injections, separated by 8 weeks (tanezumab or
Treatment groups were as follows: 1. […] Placebo for tanezumab SC and celecoxib BID.
The Intent-to-Treat (ITT) analysis set included all patients who were randomized and received at least one dose of SC study medication (either tanezumab or placebo). This analysis set was primary for all efficacy endpoints, which were analyzed according to randomization assignment, and was labeled as the ‘ITT population’.

[2] = system: subjects with chronic low back pain (CLBP); test: Study 1063: adverse events and adjudicated joint safety
Procedure: This second study (termed “Study 1063) was a randomized, double-blind, active-controlled, multicenter, parallel-group Phase 3 study in Japan to evaluate the safety and efficacy of tanezumab when administered by SC injection for up to 56 weeks in subjects with chronic low back pain (CLBP). […] Patients were also required to be experiencing some benefit from their current stable dose regimen of oral therapy of NSAID (celecoxib 200 mg/day [100 mg BID], loxoprofen 120 to 180 mg/day or meloxicam 5 to 15 mg/day) treatment, but still required additional pain relief at screening. […] Patients with a diagnosis of osteoarthritis of the knee or hip as defined by the American College of Rheumatology combined clinical and radiographic criteria or who had Kellgren Lawrence Grade ≥2 radiographic evidence of hip osteoarthritis or Kellgren Lawrence Grade ≤3 radiographic evidence of knee osteoarthritis were excluded.
Treatment groups were as follows: 1. Tanezumab 5 mg SC and placebo for celecoxib BID; 2. Tanezumab 10 mg SC and placebo for celecoxib BID; 3. Placebo for tanezumab SC and celecoxib BID.
This study was designed with a total (post-randomization) duration of 80 weeks and consisted of three periods: (1) a Screening period (up to a maximum of 37 days), (2) a Double-blind Treatment period (56 weeks), and (3) a Safety Follow-up (24 weeks) Period (FIG. 8). The Screening Period included a Washout Period (lasting 2-32 days) if required, and an Initial Pain Assessment Period (IPAP) (5 days prior to Randomization/Baseline; minimum 4 days).
The Safety analysis set included all patients who received at least one dose of SC study treatment. This analysis set was primary for all safety endpoints, which were analyzed according to treatment received, and was labeled as the ‘Safety population’. In this study, the ITT and Safety analysis sets were identical.

[3] = system: adult patients with chronic low back pain; test: Study 1059: adverse events and adjudicated joint safety; format: in vivo, human
Excerpt: For subjects who are identified with a possible or probable joint event (i.e., rapidly progressive osteoarthritis, subchondral insufficiency fractures, spontaneous osteonecrosis of the knee (SPONK), primary osteonecrosis or pathological fracture) and subjects undergoing total joint replacement for any reason, all images and other source documentation may be provided to the blinded Adjudication Committee for review and adjudication of the event. The Adjudication Committee's assessment of the event may represent the final classification of the event.
(§1) Patients were also required to have documented history of previous inadequate treatment response to at least 3 different categories of agents commonly used and generally considered effective for the treatment of chronic low back pain. Patients were required to discontinue all medications for the treatment of chronic low back pain during the primary efficacy assessment period (up to Week 16).

[4] = system: adult patients with chronic low back pain; test: Study 1059, Phase 3: efficacy (LBPI, RMDQ) in chronic low back pain; format: in vivo, human; conditions: 100-300 mg daily oral
Procedure: The Low Back Pain Intensity (LBPI) measure is assessed with an 11-point numeric rating scale ranging from 0 (no pain) to 10 (worst possible pain). The LBPI score can be the daily average LBPI score.
The Roland Morris Disability Questionnaire (RMDQ) is an index of how well subjects with low back pain are able to function with regard to daily activities (Roland M, Fairbank. The Roland-Morris Questionnaire and the Oswestry Disability Questionnaire. Spine. 2000; 25 (4)3115-3124). It is a low back pain-specific assessment of physical function with scores ranging from 0 to 24 (lower scores indicate better function).
as §1
Approximately 1800 patients were planned to be randomized initially in a 2:2:2:3 ratio to 1 of 4 following treatment groups:
1. Placebo administered SC at an 8-week interval plus placebo matching tramadol PR up to Week 16. At the Week 16 visit, patients in this group were switched in a blinded fashion in a 1:1 ratio to either tanezumab 5 mg or tanezumab 10 mg administered SC at an 8 week interval plus placebo matching tramadol PR to Week 56;
2. Tanezumab 5 mg SC administered at an 8-week interval plus placebo matching tramadol PR to Week 56;
3. Tanezumab 10 mg SC administered at an 8-week interval plus placebo matching tramadol PR to Week 56;
4. Oral tramadol PR 100-300 mg daily plus placebo administered SC at an 8-week interval to Week 56.
To achieve the initial randomization and intended re-randomization at Week 16 for placebo patients, a randomization ratio 1:1:2:2:3 for placebo→tanezumab 5 mg (at Week 16), placebo→tanezumab 10 mg (at Week 16), tanezumab 5 mg, tanezumab 10 mg, and tramadol PR was used at the beginning of the trial.
Table 2 summarizes the requirements for analgesic medication usage prior to Screening and the requirements for LBPI and Patient's Global Assessment (PGA) of CLBP. The current study enrolled patients who were more refractory to standard of care treatments for CLBP and had higher LBPI scores at Baseline.

[5] = 100 mg BID, 56-week treatment period

## COc1ccc2cc([C@H](C)C(=O)O)ccc2c1 [naproxen]
Low back pain
  LBPI endpoints relative to placebo: significant differences relative to placebo
  RMDQ endpoint relative to placebo: not the RMDQ endpoint

## Cc1ccc(-c2cc(C(F)(F)F)nn2-c2ccc(S(N)(=O)=O)cc2)cc1 [celecoxib]
[1]
  Proportion of Patients with ≥50% Improvement in LBPI at Week 16 (Mixed BOCF/LOCF): (32.6%)
[1]; ITT
  Change from Baseline to Week 16 in LBPI (Multiple Imputation), LS Mean: −2.28
  Change from Baseline to Week 16 in RMDQ (Multiple Imputation), LS Mean: −3.84
[2]; 100 mg BID
  frequency of adverse events of potential sympathetic dysfunction: 7.6%
  incidence of composite joint safety endpoint: 0%
  observation-time adjusted rate of composite joint safety endpoint: 0 event/1000 patient-years
  patients who met criteria for adjudication of a joint safety event, number: 1 patient
[2]; [5]
  incidence of serious adverse events: 2.2%
  overall incidence of adverse events: 67.4%
[2]; 100 mg BID, during the study
  Composite Joint Safety Endpoint, n (%): 0 n (%)
  Pathological Fracture, n (%): 0 n (%)
  Patients analyzed by the Adjudication Committee, n (%): 1 (1.1%) n (%)
  Patients with Only Normal Progression of OA, n (%): 0 n (%)
  Patients with Other Joint Outcome, n (%): 1 (1.1%) n (%)
  Primary Osteonecrosis, n (%): 0 n (%)
  RPOA type 1, n (%): 0 n (%)
  RPOA type 2, n (%): 0 n (%)
  RPOA, n (%): 0 n (%)
  Subchondral Insufficiency Fracture, n (%): 0 n (%)
[2]; 100 mg BID, treatment period
  Arthralgia, number (%) of patients: 6 (6.5) n (%)
  Back pain, number (%) of patients: 4 (4.3) n (%)
  Contusion, number (%) of patients: 2 (2.2) n (%)
  Diarrhoea, number (%) of patients: 3 (3.3) n (%)
  Discontinued from study due to Adverse Event, number (%) of patients: 0 n (%)
  Discontinued study drug due to Adverse Event and continued study, number (%) of patients: 4 (4.3) n (%)
  Discontinued study drug due to Adverse Event, number (%) of patients: 4 (4.3) n (%)
  Fall, number (%) of patients: 3 (3.3) n (%)
  Gastroenteritis, number (%) of patients: 3 (3.3) n (%)
  Headache, number (%) of patients: 2 (2.2) n (%)
  Hypertension, number (%) of patients: 3 (3.3) n (%)
  Hypoaesthesia, number (%) of patients: 3 (3.3) n (%)
  Intervertebral disc protrusion, number (%) of patients: 3 (3.3) n (%)
  Musculoskeletal pain, number (%) of patients: 3 (3.3) n (%)
  Myalgia, number (%) of patients: 1 (1.1) n (%)
  Nasopharyngitis, number (%) of patients: 6 (6.5) n (%)
  Pain in extremity, number (%) of patients: 3 (3.3) n (%)
  Pneumonia, number (%) of patients: 1 (1.1) n (%)
  Pyrexia, number (%) of patients: 4 (4.3) n (%)
  Serious Adverse Event, number (%) of patients: 2 (2.2) n (%)
  Severe Adverse Event, number (%) of patients: 1 (1.1) n (%)
  frequency of adverse events of abnormal peripheral sensation: 4.3%
  incidence of discontinuations from treatment due to an adverse event: 4.3%
[2]; 100 mg BID, treatment period, all causalities
  Adverse Event, number (%) of patients: 62 (67.4) n (%)
[2]; celecoxib-treated patients, 80-week observation period
  patients who met criteria for adjudication of joint safety outcome: 1.1%

## COc1cccc(C2(O)CCCCC2CN(C)C)c1 (stereo not drawn) [Tramadol PR, tramadol, reference compound]
[3]; 100-300 mg daily oral
  incidence of composite joint safety endpoint: 0.2%
  observation-time adjusted rate of composite joint safety endpoint: 1.9 events/1000 patient-years
  patients with joint safety event adjudicated to RPOA Type 1: 0.2%
  patients with joint safety event adjudicated to RPOA Type 1, number: 1 patients
[3]; tramadol PR-treated patients
  patients with adjudicated event of RPOA: 0.2%
[3]; tramadol PR-treated patients, 80-week observation period
  patients with joint safety event requiring adjudication: 0.7%
[4]
  LBPI change from Baseline to Week 2, Difference vs. plc: −0.19
  LBPI change from Baseline to Week 16, LS Mean: −2.81
  Proportion of patients with ≥50% improvement in LBPI at Week 16: (42.8) %
  RMDQ change from Baseline to Week 16, Difference vs. plc: −0.26
  RMDQ change from Baseline to Week 16, LS Mean: −5.21
  percentage of patients achieving ≥30% improvement in LBPI at week 16: 57.9%
  ≥30% improvement in LBPI at week 16, odds ratio versus placebo: 1.08
  ≥50% improvement in LBPI at Week 16, OR vs. plc: 1.25
